In patent US4510323A, “Cis-bicyclo[3.3.0]octane derivatives, medicaments containing them and processes for their preparation and use” (Gruenenthal GmbH, priority 1981, dated 1985):

Key:
[1] = molecular target: T1, adenylate cyclase in horse thrombocytes (Equus caballus, UniProt F7CK38); assay: Stimulation of adenylate cyclase (c-AMP formation from ATP) in horse thrombocytes; assay type: biochemical
T1 construct: Gs-coupled adenylate cyclase stimulation, cAMP formation from ATP as read-out
Source text: The enzyme adenylate cyclase catalyzes the formation of adenosine 3',5'-cyclic monophosphate (c-AMP) from adenosine triphosphate (ATP).
*Dose causing a threefold stimulation of the cAMP formation from ATP.

[2] = tested on: conscious, spontaneous hypertensive rats; assay: Blood pressure lowering activity in conscious, spontaneous hypertensive rats; assay type: in vivo, rat; conditions: intravenous; for ED (20 mm Hg): Rattus norvegicus, read-out: ED20 (dose causing a drop of the diastolic blood pressure by 20 mm Hg); for relative activity: blood pressure lowering, conscious SHR, 5,6-dihydroprostacyclin = 1.0
Source text: Blood pressure lowering activity in conscious,
spontaneous hypertensive rats (measurement via in-
dwelling catheter, intravenous administration of the […]

narcotized rats [3] = assay: ADP induced fall in platelet count in-vivo in narcotized rats, intravenous administration; parameters: species or system rat; conditions: urethane narcosis, 5,6-dihydroprostacyclin = 1.0
human thrombocytes = assay: Inhibition of arachidonic acid induced aggregation of human thrombocytes; assay type: cell-based; conditions: for IC50: arachidonic acid induced aggregation of human thrombocytes; for relative activity: in comparison to prostacyclin = 1.0
Source text: The aggregation of human thrombocytes induced by arachidonic acid may be prevented e.g. by prostacyclin.

narcotized rats [4] = assay: Thrombocyte aggregation inhibition after oral administration (ADP induced fall in thrombocyte count in-vivo) in narcotized rats; parameters: species or system rat; conditions: for % inhibition of platelet aggregation: narcotized rats (urethane)
Description: In this experiment the product obtained in Example 2 was administered orally in a dose of 4.64 mg/kg of narcotized rats (urethane narcosis). The thrombocyte aggregation inhibiting activity was determined at 30, 60 and 150 minutes after administration of the compound (Method: ADP induced fall in thrombocyte count in-vivo, determined by a "Technicon Autocounter").

narcotized rats [5] = assay: Persistence of blood pressure lowering activity after supramaximal hypotensive dose in narcotized rats; assay type: in vivo, rat; conditions: for half time of b.p.l.a. (blood pressure lowering activity) / rate of decay of blood pressure lowering activity: 1 mg/kg intravenous, narcotized rats (pentobarbital)
Description: On intravenous administration of a supra-
maximal hypotensive dose (1 mg/kg) of the test com-
pounds in narcotized rats (pentobarbital narcosis) the
following persistence characteristics of the blood
pressure lowering activity ("b.p.l.a.") were observed: […]

narcotized rats [6] = assay: Blood pressure lowering activity in narcotized rats (pentobarbital narcosis); assay type: in vivo, rat; conditions: intravenous; for ED (20 mm Hg): Rattus norvegicus, pentobarbital narcosis, read-out: ED20 (dose causing a drop of the diastolic blood pressure by 20 mm Hg); for relative activity: blood pressure lowering, prostacyclin = 1.0
Source text: Blood pressure lowering activity in nar-
cotized rats (pentobarbital narcosis; intravenous

[7] = tested on: platelet aggregation induced by arachidonic acid; conditions: in vitro, Whittle et al., page 611; cited from earlier work
narcotized rats [8] = conditions: stated as known; cited from earlier work
[9] = conscious spontaneous hypertensive rats, indwelling catheter

T1 sequence (F7CK38 1-384): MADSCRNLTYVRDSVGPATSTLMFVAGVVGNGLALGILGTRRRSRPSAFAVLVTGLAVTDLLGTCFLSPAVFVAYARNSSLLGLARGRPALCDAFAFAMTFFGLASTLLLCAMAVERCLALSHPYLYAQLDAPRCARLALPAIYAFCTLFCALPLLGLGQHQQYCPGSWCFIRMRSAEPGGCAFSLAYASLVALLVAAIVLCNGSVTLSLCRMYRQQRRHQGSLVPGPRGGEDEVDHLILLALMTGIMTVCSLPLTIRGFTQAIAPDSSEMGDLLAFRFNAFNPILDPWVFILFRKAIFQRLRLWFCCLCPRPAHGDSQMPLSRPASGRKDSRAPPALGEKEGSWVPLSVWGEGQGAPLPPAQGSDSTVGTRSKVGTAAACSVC

SMILES | EC200% (dose causing a threefold stimulation of the cAMP formation from ATP) [1] [µmol/L] | ED (20 mm Hg) [2, 9] [mg/kg] | relative activity [2] | relative activity (narcotized rats [3]) | IC50 (human thrombocytes) [nM] | relative activity (human thrombocytes) | other results
O=C(O)c1cccc(C=C2C[C@H]3C[C@@H](O)[C@H](/C=C/[C@@H](O)C4CCCCC4)[C@H]3C2)c1 [Example 1e, 3EZ-(m-carboxybenzylidene)-6β-(3'S-hydroxy-3'-cyclohexyl-1'E-propenyl)-7α-hydroxy-cis-bicyclo[3.3.0]octane] | 0.15 | 0.073 | 0.068 | 1.0 | 80 | 0.098 | –
CCCCC[C@H](O)/C=C/[C@@H]1[C@H]2CC(=Cc3cccc(C(=O)O)c3)C[C@H]2C[C@H]1O [Compound A, 3-(m-carboxybenzylidene)-6-beta-(3'S-hydroxy-1'E-octenyl)-7-alpha-hydroxy- cis-bicyclo[3.3.0]octane, reference compound] | 0.4 | 1.9 | 0.003 | 0.1 | 120 | 0.065 | –
O=C(O)c1cccc(/C=C2\C[C@H]3C[C@@H](O)[C@H](/C=C/[C@@H](O)C4CCCCC4)[C@H]3C2)c1 [Example 2, 3E-(m-Carboxybenzylidene)-6β-(3'S-hydroxy-3'-cyclohexyl-1'E-propenyl)-7α-hydroxy-cis-bicyclo[3.3.0]octane] | 0.13 | 0.094 | 0.053 | 1.0 | 70 | 0.11 | % inhibition of platelet aggregation (narcotized rats [4]; 30 min after oral 4.64 mg/kg): 38%; % inhibition of platelet aggregation (narcotized rats [4]; 60 min after oral 4.64 mg/kg): 26%; % inhibition of platelet aggregation (narcotized rats [4]; 150 min after oral 4.64 mg/kg): 22%; duration of strong thrombocyte aggregation inhibition (narcotized rats [4]; oral administration): at least 2.5 hours; half time of b.p.l.a. (blood pressure lowering activity) (narcotized rats [5]): 25.96 min; rate of decay of blood pressure lowering activity (narcotized rats [5]): 2.6 % per min.; duration of action relative to prostacyclin (narcotized rats [5]; blood pressure lowering activity, from Table 5): about 5 times; ED (20 mm Hg) (narcotized rats [6]): 5.39 mg/kg; relative activity (narcotized rats [6]): 0.03
CCCCC[C@H](O)/C=C/[C@@H]1[C@H]2C/C(=C/CCCC(=O)O)C[C@H]2C[C@H]1O [carbacyclin] | – | – | – | – | – | – | activity relative to prostacyclin as inhibitor of platelet aggregation [7]: 0.02 times
O=C(O)c1cccc(C=C2CC3CC(O)C(C=CC(O)C45CC6CC(CC(C6)C4)C5)C3C2)c1 (stereo not drawn) [Example 3e, 3EZ-(m-Carboxybenzylidene)-6β-[3'S-hydroxy-3'-(1"-adamantyl)-1'E-propenyl]-7α-hydroxy-cis-bicyclo[3.3.0]octane] | 0.18 | > 1 | < 0.005 | – | – | – | –
CCCCCC(O)C=CC1C(O)CC2OC(CCCCC(=O)O)CC21 (centres unmarked) [5,6-Dihydroprostacyclin, 5,6-dihydroprostacyclin, reference compound] | 15.0 | – | 1.0 | 1.0 | 180 | 0.043 | relative activity ([1]; relative to 5,6-dihydroprostacyclin = 1.0, adenylate cyclase stimulation): 1.0; ED20 (dose causing a drop of the diastolic blood pressure by 20 mm Hg) [2, 9]: 0.005 mg/kg
CCCCC[C@H](O)/C=C/[C@@H]1[C@H]2C/C(=C/CCCC(=O)O)O[C@H]2C[C@H]1O [Prostacyclin, reference compound] | – | – | – | – | 7.8 | – | half time of b.p.l.a. (blood pressure lowering activity) (narcotized rats [5]): 5.89 min; rate of decay of blood pressure lowering activity (narcotized rats [5]): 11 % per min.; effectiveness on oral administration (narcotized rats [8]): ineffective; ED (20 mm Hg) (narcotized rats [6]): 0.16 mg/kg; relative activity (narcotized rats [6]): 1.0
